These results are taken from US5137811A, “Method for diagnosing periodontal diseases with a substrate specific for aminopeptidase activity of periodontopathic bacteria” (Sunstar Kabushiki Kaisha, priority 1986, dated 1992).

The subject of test [1] is periodontopathic bacteria specific aminopeptidase activity. In words: Hydrolytic activity of saliva supernatant (Experiment 7). Conditions: 37° C. for 4 hours, Table 7. Type of test: biochemical. Here is the method:
(§1) Specimens of gingival crevicular fluid were collected with paper points from five subjects who were considered to be healthy from their clinical state, six subjects with gingivitis and six subjects with periodontitis. Each specimen was dispersed in Ringer's solution (1.5 ml), and the relative amount of spirochete to total bacteria: [formula] was determined with a phase contrast microscope. Further, the Ringer's solution (0.3 ml) was tested for hydrolytic activity using the substrate solution prepared in the same manner as described in Experiment 1. As substrates, there were used compounds of the formula [1], i.e., N-benzoylvalyl-glycyl-arginine-β-naphthylamide (BzVGR) and N-carbobenzoxy-valyl-glycyl-arginine-β-naphthylamide (CxVGR) were used.
(§2) A saliva mixture was collected from a group consisting of ten healthy subjects and centrifuged to obtain a supernatant. Likewise, centrifuged supernatants were obtained from a group of ten subjects with adult periodontitis and a group of four localized juvenile periodontitis. The supernatant was used as a specimen and its hydrolytic activity was determined according to the same manner as described in Experiment 4 except that the reaction was carried out at 37° C. for 4 hours. As the substrates, there were used N-carbobenzoxy-valyl-glycyl-arginine-p-nitrophenol (CxVGR-pNP), N-carbobenzoxy-valyl-glycylarginine-4-methoxy-2-naphthylamide (CxVGR-4NA) and N-carbobenzoxy-valyl-glycyl-arginine-β-naphthylamide (CxVGR-βNA). Color was developed by using lN sodium hydroxide for CxVGR-pNP and Fast Blue BB for CxVGR-4NA and CxVGR-βNA.

Test [2] has as its system Actinobacillus actinomycetemcomitans. Description: Hydrolytic activity of cell suspension on aminopeptidase substrates (Experiment 2). Conditions: four strains, Table 2. Type of test: cell-based. Here is the method: (§3) The strains of Treponema were anaerobically cultivated using TYGVS media at 37° C. for 7 days, while other bacterial strains were cultivated using brain heart infusion broth at 37° C. for 48 to 72 hours. Each culture was diluted to obtain a bacterial cell suspension, the absorption at 660 nm of which was 1.0.
(§4) Substrate compounds for aminopeptidase enzyme having various color developing groups derived from β-naphthylamine were dissolved in 0.1M Tris-HCl buffer (pH 7.0) at the concentration of 0.2 mM to obtain substrate solutions.
(§5) To the substrate solution (1.5 ml) was added the above cell suspension (0.3 ml) and reacted at 37° C. for 60 minutes. After completion of the reaction, a coloring reagent [prepared by dissolving diazonium salt of Garnet GBC in 1M acetate buffer (containing 10% Tween 20, pH: 4.2) at the concentration of 0.5 mg/ml] was added and, after 15 minutes, the absorption at 525 nm was determined with a spectrophotometer.
(§6) On the basis of the average amount of released β-naphthylamine in each strain, the hydrolytic activity was expressed as follows: […]
(§7) According to the same manner as described in Experiment 1, periodontopathic bacteria specific aminopeptidase activity was tested by using four strains of Treponema denticola, five strains of B. gingivalis, three strains of B. intermedius, two strains of B. melaninogenicus, two strains of Actinomyces israelli, four strains of Actinobacillus actinomycetemcomitans and three strains of Fusobacterium nucleatum. Abbreviations used in Table 2 mean the following substrate compounds.

For the next test, the system named is Actinomyces israelli. The description is as above. It is filed as cell-based. Conditions: two strains, Table 2. On the procedure:
as §3, §4, §5, §6, §7

A further test has as its system B. corporis. The test is described as above. It is filed as cell-based. Conditions: Table 2. Here is the method:
as §3, §4, §5, §6, §7

In another test the test system is B. denticola. The test is described as above. Type of test: cell-based. Conditions: Table 2. On the procedure: as §3, §4, §5, §6, §7
For a further test, the system named is B. gingivalis. The description is as above. Type of test: cell-based. Conditions: five strains, Table 2. On the procedure:
as §3, §4, §5, §6, §7

In a further test the test system is B. intermedius. The test is described as above. Type of test: cell-based. Conditions: three strains, Table 2. Here is the method:
as §3, §4, §5, §6, §7

Another test has as its system B. melaninogenicus. Described as above. It is filed as cell-based. Conditions: two strains, Table 2. On the procedure: as §3, §4, §5, §6, §7
Test [3] deals with Fusobacterium nucleatum. The description is as above. Type of test: cell-based. Conditions: three strains, Table 2. Here is the method:
as §3, §4, §5, §6, §7

Test [4] concerns Treponema denticola. The test is described as above. Type of test: cell-based. Conditions: four strains, Table 2. Here is the method:
as §3, §4, §5, §6, §7

Test [5] has as its system periodontopathic bacteria specific aminopeptidase activity. In words: Hydrolytic activity of gingival crevicular fluid specimens, visually evaluated (Experiment 5). Type of test: biochemical. Also noted: key: -: orange; +: dark orange; ++: brown; +++: dark brown. Here is the method:
as §4, §5, §1
In table 4, hydrolytic activity was visually evaluated and expressed as follows: […]
According to the same manner as described in Experiment 4, hydrolytic activity was tested by using the compounds of the formula [2], i.e., lysyl-proline-β-naphthylamide (KP) and N-carbobenzoxy-prolyl-alanyl-glycylproline-β-naphthylamide (CxPAGP) as the substrates.

Test [6] shares this test system. Description: Hydrolytic activity of saliva supernatant (Experiment 8). It is filed as biochemical. Conditions: 37° C. for 4 hours, Table 8. On the procedure:
as §2
According to the same manner as described in Experiment 7, hydrolytic activity was tested by using lysylproline-p-nitroanilide (KP-pNA), lysyl-proline-4-methoxy-2-naphthylamide (KP-4NA) and lysyl-proline-β-naphthylamide (KP-βNA)as the substrates. Color was developed by using lN sodium hydroxide for KP-pNA and Fast Blue BB for KP-4-NA and KP-βNA.

Test [7] relates to Actinobacillus actinomycetemcomitans. Description: Hydrolytic activity of oral anaerobe cell suspension on aminopeptidase substrates (Experiment 1). It is filed as cell-based. Conditions: four strains, substrate 0.2 mM, pH 7.0, 37° C., 60 minutes, Table 1. On the procedure:
(§8) Oral anaerobes, i.e., four strains of Treponema denticola, five strains of B. gingivalis, four strains of Actinobacillus actinomycetemcomitans, four strains of Capnocytophaga sp. and three strains of Fusobacterium nucleatum were tested for hydrolytic activity to the substrate of aminopeptidase enzyme as follows.
as §3, §4, §5, §6

For another test, the system named is Bacteroides gingivalis. The description is as above. Type of test: cell-based. Conditions: five strains, substrate 0.2 mM, pH 7.0, 37° C., 60 minutes, Table 1. On the procedure:
as §8, §3, §4, §5, §6

The next test has as its system Capnocytophaga sp. The description is as above. Type of test: cell-based. Conditions: four strains, substrate 0.2 mM, pH 7.0, 37° C., 60 minutes, Table 1. Here is the method:
as §8, §3, §4, §5, §6

The test system of test [8] is Fusobacterium nucleatum. The test is described as above. It is filed as cell-based. Conditions: three strains, substrate 0.2 mM, pH 7.0, 37° C., 60 minutes, Table 1. Here is the method:
as §8, §3, §4, §5, §6

In test [9] the test system is Treponema denticola. The description is as above. Type of test: cell-based. Conditions: four strains, substrate 0.2 mM, pH 7.0, 37° C., 60 minutes, Table 1. On the procedure:
as §8, §3, §4, §5, §6

The test system of test [10] is periodontopathic bacteria specific aminopeptidase activity. In words: Hydrolytic activity of saliva supernatant, substrates alone or in combination (Experiment 9). Type of test: biochemical. Conditions: 37° C. for 4 hours, Table 9. On the procedure:
as §2
According to the same manner as described in Experiment 7, hydrolytic activity was tested by using N-carbobenzoxy-valyl-glycyl-arginine-β-naphthylamide (CxVGR-βNA), N-benzoyl-arginyl-glycyl-phenylalanyl-proline-β-naphthylamide (BzRGFP-βNA), N-carbobenzoxy-valyl-glycylarginine-p-nitrophenol (CxVGR-pNP) and N-benzoyl-arginylglycyl-phenylalanyl-proline-p-nitrophenol (BzRGFP-pNP) alone or in combination as the substrates.

[11] abbreviates: Localized juvenile periodontitis subjects.

Where a SMILES comes first, the peptide text is derived from it. The star is where a group is joined. pNA = O=[N+]([O-])c1ccc(N*)cc1; βNA = c1ccc2cc(N*)ccc2c1

In the case of `COc1cc(NC(=O)[C@H](CCCNC(=N)N)NC(=O)CNC(=O)[C@@H](NC(=O)OCc2ccccc2)C(C)C)cc2ccccc12` [CxVGR-4NA, N-carbobenzoxy-valyl-glycylarginine-4-methoxy-2-naphthylamide], the hydrolytic activity in [1] (Adult Periodontitis subjects) is 34.6 ± 8.9 nmol/mL; in [1] (Healthy subjects), 18.0 ± 10.8 nmol/mL; in test [1] (setting [11]), 32.3 ± 8.9 nmol/mL.

Consider `NCCCC[C@H](N)C(=O)N1CCC[C@H]1C(=O)Nc1ccc2ccccc2c1` [KP, lysyl-proline-β-naphthylamide] (H-Lys-Pro-βNA), for which the “hydrolytic activity (average amount of released β-naphthylamine)” value in [2] was “- (release amount<5 nmol/ml)”; with Actinomyces israelli, “- (release amount<5 nmol/ml)”; in the test on B. corporis, “++ (20 ≤release amount<40 nmol/ml)”; in the test on B. denticola, “++ (20 ≤release amount<40 nmol/ml)”; with B. gingivalis, “+++ (release amount≥40 nmol/ml)”; in the test on B. intermedius it was “++ (20 ≤release amount<40 nmol/ml)”. For the same molecule, the “hydrolytic activity (average amount of released β-naphthylamine)” value in the test with B. melaninogenicus was “++ (20 ≤release amount<40 nmol/ml)”; with Fusobacterium nucleatum [3] it was “- (release amount<5 nmol/ml)”; in the test on Treponema denticola [4], “++ (20 ≤release amount<40 nmol/ml)”. For the same molecule, the “hydrolytic activity, visually evaluated” value in test [5] (Gingivitis subject 1 (spirochete 7.3 %)) is reported as “+”; in test [5] (Gingivitis subject 2 (spirochete 16.7 %)) it was “+”; in test [5] (Gingivitis subject 3 (spirochete 20.5 %)), “++”; in [5] (Gingivitis subject 4 (spirochete 6.8 %)), “-”; in [5] (Gingivitis subject 5 (spirochete 7.3 %)) it was “-”; in [5] (Gingivitis subject 6 (spirochete 14.4 %)), “+”. Further, the “hydrolytic activity, visually evaluated” value in [5] (Healthy subject 1 (spirochete 0.1 %)) is listed as “-”; in test [5] (Healthy subject 2 (spirochete 2.5 %)), “+”; in test [5] (Healthy subject 3 (spirochete 1.1 %)) it was “-”; in test [5] (Healthy subject 4 (spirochete 0.6 %)), “-”; in [5] (Healthy subject 5 (spirochete 1.3 %)), “-”; in test [5] (Periodontitis subject 1 (spirochete 45.2 %)), “+++”. Also, the “hydrolytic activity, visually evaluated” value in test [5] (Periodontitis subject 2 (spirochete 30.3 %)), in [5] (Periodontitis subject 3 (spirochete 34.6 %)), in test [5] (Periodontitis subject 4 (spirochete 21.2 %)), in test [5] (Periodontitis subject 5 (spirochete 40.3 %)) and in [5] (Periodontitis subject 6 (spirochete 35.1 %)) was “+++” throughout. For the same molecule, the hydrolytic activity came out at 36.2 ± 9.9 nmol/mL in test [6] (Adult Periodontitis subjects), 16.1 ± 10.3 nmol/mL in test [6] (Healthy subjects) and 33.4 ± 10.0 nmol/mL in [6] (setting [11]).

Take `COc1cc(NC(=O)[C@@H]2CCCN2C(=O)[C@@H](N)CCCCN)cc2ccccc12` [KP-4NA, lysyl-proline-4-methoxy-2-naphthylamide]: the figures for the hydrolytic activity in [6] (Adult Periodontitis subjects), in test [6] (Healthy subjects) and in test [6] (setting [11]) were 35.5 ± 10.1 nmol/mL, 16.0 ± 10.8 nmol/mL and 32.3 ± 8.9 nmol/mL, respectively.

Regarding `NCCCC[C@H](N)C(=O)N1CCC[C@H]1C(=O)Nc1ccc([N+](=O)[O-])cc1` [KP-pNA, lysylproline-p-nitroanilide] (H-Lys-Pro-pNA), the hydrolytic activity in [6] (Adult Periodontitis subjects) was 34.3 ± 9.8 nmol/mL; in test [6] (Healthy subjects), 15.0 ± 9.4 nmol/mL; in test [6] (setting [11]) it was 31.5 ± 9.7 nmol/mL.

`N=C(N)NCCC[C@H](N)C(=O)Nc1ccc2ccccc2c1` [R, arginine-β-naphthylamide, reference compound]: the “hydrolytic activity (average amount of released β-naphthylamine)” value in test [7] was “- (release amount<5 nmol/ml)”; with Bacteroides gingivalis it was “- (release amount<5 nmol/ml)”; in the test with Capnocytophaga sp., “+++ (release amount≥40 nmol/ml)”; in the test on Fusobacterium nucleatum [8], “- (release amount<5 nmol/ml)”; in the test with Treponema denticola [9] it was “- (release amount<5 nmol/ml)”; in [2], “- (release amount<5 nmol/ml)”. For the same molecule, the “hydrolytic activity (average amount of released β-naphthylamine)” value in the test with Actinomyces israelli, in the test on B. corporis, in the test on B. denticola, in the test on B. gingivalis, in the test on B. intermedius and with B. melaninogenicus was “- (release amount<5 nmol/ml)” in each case. Besides, the “hydrolytic activity (average amount of released β-naphthylamine)” value with Fusobacterium nucleatum [3] and in the test with Treponema denticola [4] was “- (release amount<5 nmol/ml)” throughout.

Consider “N-benzoyl-arginylglycyl-phenylalanyl-proline-p-nitrophenol [BzRGFP-pNP]”, for which the hydrolytic activity in test [10] (Adult Periodontitis subjects) was found to be 25.6 ± 8.4 nmol/mL; in [10] (Healthy subjects), 13.3 ± 4.9 nmol/mL; in test [10] (setting [11]), 21.8 ± 7.8 nmol/mL.

With “N-carbobenzoxy-valyl-glycyl-arginine-p-nitrophenol [CxVGR-pNP]”, the hydrolytic activity in test [1] (Adult Periodontitis subjects) was 34.0 ± 9.7 nmol/mL; in [1] (Healthy subjects) it was 17.0 ± 11.4 nmol/mL; in test [1] (setting [11]), 32.5 ± 9.6 nmol/mL; in test [10] (Adult Periodontitis subjects), 33.5 ± 11.5 nmol/mL; in test [10] (Healthy subjects), 14.0 ± 7.9 nmol/mL; in test [10] (setting [11]), 28.8 ± 9.1 nmol/mL.
